3 compounds from publication PMC5913134, “The IL-33-PIN1-IRAK-M axis is critical for type 2 immunity in IL-33-induced allergic airway inflammation” (Nature Communications, 2018) can be followed below.

In assay [1] the test system is naive CD4^+ cells co-cultured with BMDCs. In words: BMDC / naive CD4+ T cell co-culture TH2 polarization, IL-5 and IL-13 secretion. It is filed as cell-based, C57 B6 mice. As to conditions: ATRA 5 µM, two days prior to and during co-culture, IL-33 50 ng/ml. The method, then:
Supplementary Figure 7. IRAK-M KO or Pin1 KO derived bone marrow dendritic cells attenuates Naïve TH2 cell differentiation upon IL-33 induction in co culture experiment. Naïve CD4+ T cells isolated from C57 B6 mice were cultured with or without IL-33 (50ng/ml) and BMDCs isolated from WT, IRAK-M KO (a) or Pin1 KO mice (b) in a 1:5 ratio for 5 days with no antigen being added. In some cases as indicated 5 µM of ATRA was added to the medium two days prior to T cell co culturing and during the experiment. Supernatants were analyzed for cytokines on day 5. The data were analyzed by a Student's two-tailed t test and the values are reported as mean ± standard errors of the means (SEM). *- statistical significance (P<0.05), **- significance (P<0.01).

The next assay concerns PIN1. In words: PIN1 expression in DC2.4 cells. In kind it is cell-based, C57BL/6. As to conditions: ATRA 5 or 10 μM, 3 days pretreatment, before IL-33, DC2.4.
Assay [2] concerns Il6, Csf3, Cxcl2 and Ccl5 expression in DC2.4 cells. In words: qRT-PCR of Il6, Csf3, Cxcl2 and Ccl5 in DC2.4 cells. The following applies: for effect of ATRA on target gene expression: DC2.4, IL-33. In kind it is cell-based, C57BL/6. In general terms: Quantitative PCR measures a nucleic acid by following its amplification.
Method: Also as indicated, some cells were pretreated for 3 days with 5 μM or 10 μM of ATRA before IL-33 induction. e Relative gene expression of Il6, Csf3, Cxcl2 and Ccl5 in the different samples as in d normalized to actin. f IRAK-M was stably expressed in pLKO or TET on shPin1 expressing cells, followed by induction with IL-33, before western blot to examine protein expression of IRAK-M, PIN1 and tubulin as well as g qRT-PCR to determine the relative gene expression for Il6, Csf3, Cxcl2 and Ccl5 in the different samples.
SYBR Green PCR Master Mix (Applied Biosystems, Foster City, CA) was used for two-step real-time RT-PCR analysis on an Applied Biosystems StepOnePlus Real Time PCR instrument. […] Expression value of the targeted gene in a given sample was normalized to the corresponding expression of Actin. The 2^–ΔΔCt method was used to calculate relative expression of the targeted genes.
In the next assay the test system is IRAK-M. Kind of assay: IRAK-M protein stability, cycloheximide chase. It is filed as cell-based. As to conditions: PIN1-deficient MEFs (text PIN1 KD, Fig. 4g legend PIN1 KO) co-expressing IRAK-M with PIN1 mutant. The method, then: Fig. 4 PIN1 increases IRAK-M protein stabilization. a After IRAK-M and GFP were coexpressed in WT and PIN1 KO MEFs for 24 h, cells were split equally into 5 dishes. […] The data were analyzed by a Student’s two-tailed t test and the values are reported as mean ± standard errors of the means (SEM). *- statistical significance (P < 0.05), **- significance (P < 0.01)

For `CC1=C(/C=C/C(C)=C/C=C/C(C)=C/C(=O)O)C(C)(C)CCC1` [ATRA, all-trans retinoic acid], the “IL-33-induced IL-5 and IL-13 secretion, inhibition by ATRA” value in assay [1] was “significantly attenuated”. For the same compound, the PIN1 expression result in the assay on PIN1 is reported as “reduced PIN1 expression”. In assay [2] (ATRA, even at 5 µM, IRAK-M stably expressing DC2.4 cells, IL-33), the “target gene expression (Il6, Csf3, Cxcl2, Ccl5)” value is “inhibited target gene expression”. Besides, the “effect of ATRA on target gene expression” value was “highly attenuated” in assay [2] (IRAK-M mutants S110E and P111A); “completely abolished” in assay [2] (P111A mutant, 10 µM ATRA); “some reduction in gene expression still persisted” in assay [2] (S110E mutant, 10 µM ATRA).
For “W34A: PIN1 WW domain mutant W34A (binding defective)”, the “effect on IRAK-M half-life” value in the assay on IRAK-M is “neither binding nor isomerizing mutants had any effect”.
Consider “K63A: PIN1 PPIase domain mutant K63A (catalytically inactive)”, for which, in the assay on IRAK-M, the “effect on IRAK-M half-life” value was “neither binding nor isomerizing mutants had any effect”.
